In patent US20020137929A1, “1 - (3-heterocyclylphenyl) isothiourea, -isourea, -guanidine and -amidine herbicidal agents” (Intellectual Property Department, BASF Aktiengesellschaft, priority 1998, published 2002):

Experiments:
[1] = tested on: GLXMAW (Soybean, Williams); test: Preemergence herbicidal evaluation; assay type: in vivo, Glycine max, (L.) Merr. cv Williams; conditions: preemergence, rated 4-5 weeks after treatment, 0-9 scale
Summary of the method: (§1)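 In this greenhouse assay, monocot and dicot seeds are planted in soil and treated prior to emergence with an aqueous acetone spray (about 0.0156-0.500 kg/ha). Plants are assessed visually against control on a 0-9 scale after 4-5 weeks.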

[2] = tested on: CASOB (Sicklepod); test: Postemergence herbicidal evaluation; assay type: in vivo, Cassia obtusifolia; conditions: postemergence
Summary of the method: (§2)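 Rate range approx. 0.0156–0.500 kg/ha. Foliar application at 40 psi to ~2-week seedlings; surfactant 0.5% TWEEN 20 in 50/50 acetone/water. Evaluation 4–5 wk post-treatment by 0–9 visual injury score, means of replicate tests.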

[3] = tested on: SAGPY (Arrowhead (Pygmaea)); test: Postemergence weed control under flooded paddy conditions; assay type: in vivo, Sagittaria pygmaea; conditions: postemergence weeds, rated 3 to 4 weeks after treatment
Summary of the method: (§3)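 Containers holding 3–5 cm weeds and rice at 1.5–2.5 leaves are flooded to 1.5–3 cm above soil. Compound in 50/50 v/v aqueous/acetone is then added directly to the water, about 0.0313–0.500 kg/ha. Plants are kept in the greenhouse and rated 0–9 visually at 3–4 weeks.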

[4] = tested on: CYPSE (Flatsedge); test: Preemergence weed control under flooded paddy conditions; assay type: in vivo, Cyperus serotinus; conditions: rated 3-4 weeks after treatment
Summary of the method: (§4)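 First, seeds or propagules go into the top 0.5 cm of silt loam; next, water is held 1.5 to 3 cm over the soil; then compound (50/50 acetone/water) is pipetted into it at about 0.0313 to 0.500 kg/ha; finally plants are rated visually 0-9 after three to four weeks.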

[5] = tested on: AMBEL (Ragweed, Common); test: Preemergence herbicidal evaluation; assay type: in vivo, Ambrosia artemisifolia; conditions: preemergence, rated 4-5 weeks after treatment, 0-9 scale
Summary of the method: as §1

[6] = tested on: ZEAMX (Corn, Field); test: Postemergence herbicidal evaluation; assay type: in vivo, Zea mays; conditions: postemergence
Summary of the method: as §2

[7] = tested on: CHEAL (Lambsquarters, Common); test: Postemergence herbicidal evaluation; assay type: in vivo, Chenopodium album; conditions: postemergence
Summary of the method: as §2

[8] = tested on: CYPIR (Rice Flatsedge); test: Postemergence weed control under flooded paddy conditions; assay type: in vivo, Cyperus iria; conditions: postemergence weeds, rated 3 to 4 weeks after treatment
Summary of the method: as §3

[9] = tested on: ORYSAT (Rice, Tebonnet); test: Preemergence herbicidal evaluation; assay type: in vivo, Oryza sativa, (L.) Tebonnet; conditions: preemergence, rated 4-5 weeks after treatment, 0-9 scale
Summary of the method: as §1

[10] = tested on: GALAP (Galium); test: Postemergence herbicidal evaluation; assay type: in vivo, Galium aparine; conditions: postemergence
Summary of the method: as §2

[11] = tested on: MOOVA (Monochoria); test: Preemergence weed control under flooded paddy conditions; assay type: in vivo, Monochoria vaginalis; conditions: rated 3-4 weeks after treatment
Summary of the method: as §4

[12] = tested on: SETVI (Foxtail, Green); test: Preemergence herbicidal evaluation; assay type: in vivo, Setaria viridis; conditions: preemergence, rated 4-5 weeks after treatment, 0-9 scale
Summary of the method: as §1

[13] = tested on: ORYSAT (Rice, Tebonnet); test: Postemergence herbicidal evaluation; assay type: in vivo, Oryza sativa, (L.) Tebonnet; conditions: postemergence
Summary of the method: as §2

[14] = tested on: CYPSE (Flatsedge); test: Postemergence weed control under flooded paddy conditions; assay type: in vivo, Cyperus serotinus; conditions: postemergence weeds, rated 3 to 4 weeks after treatment
Summary of the method: as §3

Work on `C=CCN1C(=O)C(CC(=O)NOC)SC1=Nc1cc(-n2c(=O)cc(C(F)(F)F)n(C)c2=O)c(F)cc1Cl` (stereo not shown) [Compound 85] yielded a GLXMAW rating ([1]; 0.0156 kg/ha) of 0.0, a GLXMAW rating ([1]; 0.0313 kg/ha) of 0.0 and a GLXMAW rating ([1]; 0.0625 kg/ha) of 0.0. The GLXMAW rating ([1]; 0.1250 kg/ha) was 2.0, the GLXMAW rating ([1]; 0.2500 kg/ha) was 2.0 and the GLXMAW rating ([1]; 0.5000 kg/ha) was 9.0. It also gave a CASOB herbicidal rating ([2]; rate 0.0156 kg/ha) of 0.0, a CASOB herbicidal rating ([2]; rate 0.0313 kg/ha) of 0.0 and a CASOB herbicidal rating ([2]; rate 0.0625 kg/ha) of 0.0. For the same molecule, the CASOB herbicidal rating ([2]; rate 0.1250 kg/ha) was 2.0, the “Herbicidal rating SAGPY” value ([3]; Rate 0.0313 kg/ha) was 3.0 and the “Herbicidal rating SAGPY” value ([3]; Rate 0.0625 kg/ha) was 3.0. The “Herbicidal rating SAGPY” value ([3]; Rate 0.1250 kg/ha) was 9.0, the “Herbicidal rating SAGPY” value ([3]; Rate 0.2500 kg/ha) was 9.0 and the “CYPSE herbicidal effect rating” value ([4]; 0.0313 kg/ha) was 0.0. For the same molecule, the “CYPSE herbicidal effect rating” value ([4]; 0.0625 kg/ha) was 2.0, the “CYPSE herbicidal effect rating” value ([4]; 0.1250 kg/ha) was 2.0 and the “CYPSE herbicidal effect rating” value ([4]; 0.2500 kg/ha) was 9.0. The AMBEL rating ([5]; 0.0156 kg/ha) was 0.0, the AMBEL rating ([5]; 0.0313 kg/ha) was 0.0 and the AMBEL rating ([5]; 0.0625 kg/ha) was 3.0. The AMBEL rating ([5]; 0.1250 kg/ha) was 7.0, the AMBEL rating ([5]; 0.2500 kg/ha) was 9.0 and the AMBEL rating ([5]; 0.5000 kg/ha) was 9.0. The ZEAMX herbicidal rating ([6]; rate 0.0156 kg/ha) was 4.0, the ZEAMX herbicidal rating ([6]; rate 0.0313 kg/ha) was 6.5 and the ZEAMX herbicidal rating ([6]; rate 0.0625 kg/ha) was 7.5. It also gave a ZEAMX herbicidal rating ([6]; rate 0.1250 kg/ha) of 8.5, a CHEAL herbicidal rating ([7]; rate 0.0156 kg/ha) of 2.0 and a CHEAL herbicidal rating ([7]; rate 0.0313 kg/ha) of 4.0. For the same molecule, the CHEAL herbicidal rating ([7]; rate 0.0625 kg/ha) was 4.0, the CHEAL herbicidal rating ([7]; rate 0.1250 kg/ha) was 9.0 and the “Herbicidal rating CYPIR” value ([8]; Rate 0.0313 kg/ha) was 3.0. For the same molecule, the “Herbicidal rating CYPIR” value ([8]; Rate 0.0625 kg/ha) was 7.0, the “Herbicidal rating CYPIR” value ([8]; Rate 0.1250 kg/ha) was 9.0 and the “Herbicidal rating CYPIR” value ([8]; Rate 0.2500 kg/ha) was 9.0. The ORYSAT rating ([9]; 0.0156 kg/ha) was 0.0, the ORYSAT rating ([9]; 0.0313 kg/ha) was 0.0 and the ORYSAT rating ([9]; 0.0625 kg/ha) was 0.0. For the same molecule, the ORYSAT rating ([9]; 0.1250 kg/ha) was 0.0, the ORYSAT rating ([9]; 0.2500 kg/ha) was 2.0 and the ORYSAT rating ([9]; 0.5000 kg/ha) was 3.0. It also gave a GALAP herbicidal rating ([10]; rate 0.0156 kg/ha) of 0.0, a GALAP herbicidal rating ([10]; rate 0.0313 kg/ha) of 1.0 and a GALAP herbicidal rating ([10]; rate 0.0625 kg/ha) of 3.0. The GALAP herbicidal rating ([10]; rate 0.1250 kg/ha) was 5.0, the “MOOVA herbicidal effect rating” value ([11]; 0.0313 kg/ha) was 9.0 and the “MOOVA herbicidal effect rating” value ([11]; 0.0625 kg/ha) was 9.0. For the same molecule, the “MOOVA herbicidal effect rating” value ([11]; 0.1250 kg/ha) was 9.0, the “MOOVA herbicidal effect rating” value ([11]; 0.2500 kg/ha) was 9.0 and the SETVI rating ([12]; 0.0156 kg/ha) was 0.0. The SETVI rating ([12]; 0.0313 kg/ha) was 0.0, the SETVI rating ([12]; 0.0625 kg/ha) was 0.0 and the SETVI rating ([12]; 0.1250 kg/ha) was 0.0. The SETVI rating ([12]; 0.2500 kg/ha) was 9.0, the SETVI rating ([12]; 0.5000 kg/ha) was 9.0 and the ORYSAT herbicidal rating ([13]; rate 0.0156 kg/ha) was 1.0. For the same molecule, the ORYSAT herbicidal rating ([13]; rate 0.0313 kg/ha) was 1.0, the ORYSAT herbicidal rating ([13]; rate 0.0625 kg/ha) was 1.5 and the ORYSAT herbicidal rating ([13]; rate 0.1250 kg/ha) was 2.5. The “Herbicidal rating CYPSE” value ([14]; Rate 0.0313 kg/ha) was 0.0, the “Herbicidal rating CYPSE” value ([14]; Rate 0.0625 kg/ha) was 2.0 and the “Herbicidal rating CYPSE” value ([14]; Rate 0.1250 kg/ha) was 2.0. For the same molecule, the “Herbicidal rating CYPSE” value ([14]; Rate 0.2500 kg/ha) was 9.0.
